Measurements taken from patent US9924721B2 (priority 2013, dated 2018).
Like-named read-outs stand apart in the source and are kept apart here. Marks after values point to notes of the source that are not given here.

Assays:
[1] = physchem; settings: pH 2.7
[2] = system: Pythium ultimum; assay: Pythium ultimum in vitro cell test; type: cell-based; settings: 4 days incubation
Method: Pythium ultimum In Vitro Cell Test
• Solvent: DMSO • Culture medium: 14.6 g anhydrous D-glucose (VWR), 7.1 g Mycological Peptone (Oxoid), 1.4 g granulated Yeast Extract (Merck), QSP liter • Inoculum: mycelial suspension
Fungicides were solubilized in DMSO and the solution used to prepare the required range of concentrations. The final concentration of DMSO used in the assay was ≤1%.
Inoculum was prepared from a pre-culture of P. ultimum grown in liquid medium by homogenization using a blender. The concentration of ground mycelium in the inoculum was estimated and adjusted to the desired optical density (OD).
Fungicides were evaluated for their ability to inhibit mycelium growth in liquid culture assay. The compounds were added in the desired concentrations to culture medium containing the mycelial suspension. After 4 days of incubation, the fungicidal efficacy of compounds was determined by spectrometric measurement of mycelium growth. Inhibition of fungal growth was determined by comparing the absorbance values in wells containing the fungicides with the absorbance in control wells without fungicides.

[3] = system: Phytophthora infestans; type: in vivo; settings: tomatoes, spray, evaluated 3 days after inoculation
[4] = system: Phytophthora infestans; assay: microbe, parasite or virus in culture; type: cell-based; settings: for Eff. % (inhibition of fungal growth): 8 days incubation
[5] = pH 2.7
[6] = system: Plasmopara viticola; assay: Plasmopara test (grapevines)/preventive; type: in vivo; settings: spray, evaluated 6 days after inoculation
Method: Plasmopara Test (Grapevines)/Preventive
• Solvent: 24.5 parts by weight of acetone • 24.5 parts by weight of dimethylacetamide • Emulsifier: 1 part by weight of alkylaryl polyglycol ether
To produce a suitable preparation of active compound, 1 part by weight of active compound is mixed with the stated amounts of solvent and emulsifier, and the concentrate is diluted with water to the desired concentration.
To test for preventive activity, young plants are sprayed with the preparation of active compound at the stated rate of application. After the spray coating has dried on, the plants are inoculated with an aqueous spore suspension of Plasmopara viticola and then remain for 1 day in an incubation cabinet at approximately 20° C. and a relative atmospheric humidity of 100%. The plant is subsequently placed for 4 days in a greenhouse at approximately 21° C. and a relative atmospheric humidity of approximately 90%. The plants are then misted and placed for 1 day in an incubation cabinet.
The test is evaluated 6 days after the inoculation. 0% means an efficacy which corresponds to that of the untreated control, while an efficacy of 100% means that no disease is observed.

[7] = 0.25 μg/mL of active ingredient
[8] = Phytophthora infestans, 192 h, read-out: Eff. % (inhibition of fungal growth)

| SMILES | chromatographic logP [1] | Eff. % (inhibition of fungal growth) ([2]; 20 μg/mL of active ingredient) [%] | Eff. % (inhibition of fungal growth) ([4]; 20 μg/mL of active ingredient) [%] | Log P [5] | further results |
| --- | --- | --- | --- | --- | --- |
| CS(=O)(=O)Oc1ccccc1C1CC(C(=O)CCl)=NO1 (centres unmarked) [2-[3-(chloroacetyl)-4,5-dihydro-1,2-oxazol-5-yl]phenyl methanesulfonate] | 2.37 |  |  |  |  |
| C#CCOc1ccccc1C1CC(c2csc(C3CCNCC3)n2)=NO1 (centres unmarked) [4-(4-{5-[2-(prop-2-yn-1-yloxy)phenyl]-4,5-dihydro-1,2-oxazol-3-yl}-1,3-thiazol-2-yl)piperidinium chloride] | 1.26 |  |  |  |  |
| CC(C)OC(=O)C(C(=O)N1CCC(c2nc(C3=NOC(c4ccccc4OS(C)(=O)=O)C3)cs2)CC1)n1nc(C(F)F)cc1C(F)F (centres unmarked) [Example I-01] |  | 95 | 100 | 3.53^[a] | Eff. % (preventive efficacy) ([3]; 100 ppm of active ingredient): 70% |
| C#CCOc1cccc(F)c1C1CC(c2csc(C3CCN(C(=O)C(C(=O)OCCOC)n4nc(C(F)F)cc4C(F)F)CC3)n2)=NO1 (centres unmarked) [Example I-02] |  |  |  | 3.37^[a] | Eff. % (inhibition of fungal growth) ([2]; of active ingredient): 96%; Eff. % (preventive efficacy) ([6]; 100 ppm of active ingredient): 100%; Eff. % (preventive efficacy) ([3]; 100 ppm of active ingredient): 96%; Eff. % (inhibition of fungal growth) [4, 7]: 100% |
| CCOC(=O)C(C(=O)N1CCC(c2nc(C3=NOC(c4c(F)cccc4OS(C)(=O)=O)C3)cs2)CC1)n1nc(C(F)F)cc1C(F)F (centres unmarked) [Example I-03] |  | 96 | 99 | 3.29^[a] | Eff. % (preventive efficacy) ([6]; 100 ppm of active ingredient): 98%; Eff. % (preventive efficacy) ([3]; 100 ppm of active ingredient): 95% |
| COCCOC(=O)C(C(=O)N1CCC(c2nc(C3=NOC(c4ccccc4OS(C)(=O)=O)C3)cs2)CC1)n1nc(C(F)F)cc1C(F)F (centres unmarked) [Example I-05] |  | 87 |  | 3.14^[a] | Eff. % (preventive efficacy) ([6]; 100 ppm of active ingredient): 95%; Eff. % (preventive efficacy) ([3]; 100 ppm of active ingredient): 96%; Eff. % (inhibition of fungal growth) [4, 7]: 100% |
| CCOC(=O)C(C(=O)N1CCC(c2nc(C3=NOC(c4c(Cl)cccc4OS(C)(=O)=O)C3)cs2)CC1)n1nc(C(F)F)cc1C(F)F (centres unmarked) [Example I-08] |  | 87 | 99 | 3.50^[a] | Eff. % (preventive efficacy) ([6]; 100 ppm of active ingredient): 98%; Eff. % (preventive efficacy) ([3]; 100 ppm of active ingredient): 95% |
| C#CCOc1ccccc1C1CC(c2csc(C3CCN(C(=O)C(C(=O)OCC)n4nc(C(F)F)cc4C(F)F)CC3)n2)=NO1 (centres unmarked) [Example I-15, ethyl 2-[3,5-bis(difluoromethyl)-1H-pyrazol-1-yl]-3-oxo-3-[4-(4-{5-[2-(prop-2-yn-1-yloxy)phenyl]-4,5-dihydro-1,2-oxazol-3-yl}-1,3-thiazol-2-yl)piperidin-1-yl]propanoate] | 3.69 |  |  |  |  |
| C#CCOc1cccc(Cl)c1C1CC(c2csc(C3CCN(C(=O)C(C(=O)OCC)n4nc(C(F)F)cc4C(F)F)CC3)n2)=NO1 (centres unmarked) [Example I-16] |  | 94 | 100 | 3.82^[a] | Eff. % (preventive efficacy) ([6]; 100 ppm of active ingredient): 95%; Eff. % (preventive efficacy) ([3]; 100 ppm of active ingredient): 98% |
| C#CCOc1ccccc1C1CC(c2csc(C3CCN(C(=O)C(Br)C(=O)OCC)CC3)n2)=NO1 (centres unmarked) [Example I-30, ethyl 2-bromo-3-oxo-3-[4-(4-{5-[2-(prop-2-yn-1-yloxy)phenyl]-4,5-dihydro-1,2-oxazol-3-yl}-1,3-thiazol-2-yl)piperidin-1-yl]propanoate] | 3.18 |  |  |  |  |
| C#CCOc1cccc(F)c1C1CC(c2csc(C3CCN(C(=O)C(Br)C(=O)OC(C)C)CC3)n2)=NO1 (centres unmarked) [Example I-38] |  |  |  | 3.30^[a] | Eff. % (inhibition of fungal growth) ([2]; of active ingredient): 99%; Eff. % (preventive efficacy) ([6]; 1 ppm of active ingredient): 93%; Eff. % (inhibition of fungal growth) [4, 7]: 100% |
| C#CCOc1ccccc1C1CC(c2csc(C3CCN(C(=O)CC(=O)OCC)CC3)n2)=NO1 (centres unmarked) [Example I-41, ethyl 3-oxo-3-[4-(4-{5-[2-(prop-2-yn-1-yloxy)phenyl]-4,5-dihydro-1,2-oxazol-3-yl}-1,3-thiazol-2-yl)piperidin-1-yl]propanoate] | 2.7 |  |  |  | inhibition at 20 µg/mL ([2]; Globisporangium ultimum, 96 h, 20 μg/mL of active ingredient, read-out: Eff. % (inhibition of fungal growth)): 99%; Eff. % (preventive efficacy) ([6]; 1 ppm of active ingredient): 91%; Eff. % (preventive efficacy) ([3]; 1 ppm of active ingredient): 94%; inhibition at 20 µg/mL [4, 8]: 100% |
| C#CCOc1cccc(F)c1C1CC(c2csc(C3CCN(C(=O)CC(=O)OCC)CC3)n2)=NO1 (centres unmarked) [Example I-42] |  | 100 | 100 | 2.58^[a] | Eff. % (preventive efficacy) ([6]; 1 ppm of active ingredient): 99%; Eff. % (preventive efficacy) ([3]; 1 ppm of active ingredient): 94% |
| C#CCOc1cccc(F)c1C1CC(c2csc(C3CCN(C(=O)CC(=O)OC(C)C)CC3)n2)=NO1 (centres unmarked) [Example I-44] |  | 99 | 100 | 2.85^[a] | Eff. % (preventive efficacy) ([6]; 1 ppm of active ingredient): 82% |
| C#CCOc1cccc(Cl)c1C1CC(c2csc(C3CCN(C(=O)CC(=O)OCC)CC3)n2)=NO1 (centres unmarked) [Example I-51] |  | 95 | 100 | 2.81^[a] | Eff. % (preventive efficacy) ([6]; 1 ppm of active ingredient): 94% |
| CS(=O)(=O)Oc1ccccc1C1CC(c2csc(C3CCN(C(=O)C(C(=O)OCc4ccccc4)n4nc(C(F)F)cc4C(F)F)CC3)n2)=NO1 (centres unmarked) [Example I-60, benzyl 2-[3,5-bis(difluoromethyl)-1H-pyrazol-1-yl]-3-{4-[4-(5-{2-[(methylsulfonyl)oxy]phenyl}-4,5-dihydro-1,2-oxazol-3-yl)-1,3-thiazol-2-yl]piperidin-1-yl}-3-oxopropanoate] | 3.77 |  |  |  | inhibition at 0.25 µg/mL [4, 8]: 100% |
| NC(=S)C1CCN(C(=O)C(C(=O)OCc2ccccc2)n2nc(C(F)F)cc2C(F)F)CC1 (centres unmarked) [II-01, benzyl 2-[3,5-bis(difluoromethyl)-1H-pyrazol-1-yl]-3-(4-carbamothioyl-piperidin-1-yl)-3-oxopropanoate] | 2.65 |  |  |  |  |
| N#CC1CCN(C(=O)CC(=O)OCc2ccccc2)CC1 [IV-02, benzyl 3-(4-cyanopiperidin-1-yl)-3-oxopropanoate] | 1.85 |  |  |  |  |
| N#CC1CCN(C(=O)C(Br)C(=O)OCc2ccccc2)CC1 (centres unmarked) [IV-03, benzyl 2-bromo-3-(4-cyanopiperidin-1-yl)-3-oxopropanoate] | 2.24 |  |  |  |  |
| N#CC1CCN(C(=O)C(C(=O)OCc2ccccc2)n2nc(C(F)F)cc2C(F)F)CC1 (centres unmarked) [IV-04, benzyl 2-[3,5-bis(difluoromethyl)-1H-pyrazol-1-yl]-3-(4-cyanopiperidin-1-yl)-3-oxopropanoate] | 2.94 |  |  |  |  |
| C#CCOc1ccccc1C1CC(c2csc(C3CCN(C(=O)OC(C)(C)C)CC3)n2)=NO1 (centres unmarked) [tert-butyl 4-(4-{5-[2-(prop-2-yn-1-yloxy)phenyl]-4,5-dihydro-1,2-oxazol-3-yl}-1,3-thiazol-2-yl)piperidine-1-carboxylate] | 4.07 |  |  |  |  |
